According to patent publication US20010041706A1, “Blockade of taxane metabolism” (priority 2000, published 2001):

Key:
CYP2C8 = target: T1, CYP2C8 (Homo sapiens, UniProt P10632); conditions: previously reported; cited from earlier work
T1 sequence (P10632 1-490): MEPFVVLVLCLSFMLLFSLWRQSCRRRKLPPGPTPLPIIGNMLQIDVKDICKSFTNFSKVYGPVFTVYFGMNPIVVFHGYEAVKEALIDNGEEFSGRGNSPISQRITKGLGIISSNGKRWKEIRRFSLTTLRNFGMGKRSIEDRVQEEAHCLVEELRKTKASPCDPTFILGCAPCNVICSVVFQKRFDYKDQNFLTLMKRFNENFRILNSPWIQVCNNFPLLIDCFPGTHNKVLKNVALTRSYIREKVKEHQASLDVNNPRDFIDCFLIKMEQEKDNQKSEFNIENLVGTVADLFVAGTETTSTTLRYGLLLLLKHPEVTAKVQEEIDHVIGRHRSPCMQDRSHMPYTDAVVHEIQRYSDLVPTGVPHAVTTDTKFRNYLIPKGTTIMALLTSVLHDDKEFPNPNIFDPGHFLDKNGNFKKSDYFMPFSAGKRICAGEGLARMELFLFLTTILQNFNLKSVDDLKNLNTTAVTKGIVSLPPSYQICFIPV

paclitaxel metabolism [1] = conditions: Jamis-Dow et al., Am J. Clin. Oncol. 1997; cited from earlier work
[2] = target: T2, cytochrome P450 2C8 (CYP2C8) (Homo sapiens, UniProt P10632); conditions: hepatocytes
T2 sequence (P10632 1-490): T1 sequence (P10632 1-490)

paclitaxel metabolism [3] = experiment: Paclitaxel metabolism in primary human hepatocytes, overall; format: cell-based; conditions: second experiment (FIG. 4), highest concentration tested (50 μM), 24 hours
[4] = target: cytochrome P450 3A4 (CYP3A4) (Homo sapiens, UniProt P08684); conditions: hepatocytes
Chain of cytochrome P450 3A4 (CYP3A4) (P08684 whole entry): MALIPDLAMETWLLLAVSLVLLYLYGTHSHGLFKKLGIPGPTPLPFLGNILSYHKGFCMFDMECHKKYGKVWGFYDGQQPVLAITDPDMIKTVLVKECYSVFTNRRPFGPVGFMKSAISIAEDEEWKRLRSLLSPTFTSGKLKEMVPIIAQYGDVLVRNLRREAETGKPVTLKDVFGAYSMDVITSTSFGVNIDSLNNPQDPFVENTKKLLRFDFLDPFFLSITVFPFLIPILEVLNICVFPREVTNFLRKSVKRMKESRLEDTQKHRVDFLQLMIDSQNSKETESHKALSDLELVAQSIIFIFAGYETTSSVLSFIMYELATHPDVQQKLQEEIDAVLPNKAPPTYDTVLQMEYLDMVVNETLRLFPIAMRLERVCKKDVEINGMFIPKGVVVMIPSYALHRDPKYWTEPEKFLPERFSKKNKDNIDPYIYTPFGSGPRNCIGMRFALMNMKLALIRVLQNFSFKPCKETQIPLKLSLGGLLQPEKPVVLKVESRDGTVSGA

[5] = Quercetin levels in mouse liver after oral dose (HPLC); format: in vivo; conditions: mice receiving oral quercetin 1000 mg/kg
Protocol: Quercetin twelve hours prior to paclitaxel had no effect on system exposure. […] The peak levels of quercetin measured in the livers of mice receiving oral supplementation were approximately 15 μM, and occurred between 8 and 12 hours after the dose.

inhibition of paclitaxel metabolism by CYP3A4 [4]	peak levels of quercetin measured in the livers [5]	Compound	inhibition of the metabolism of paclitaxel by CYP2C8 (CYP2C8)	inhibition of paclitaxel metabolism in humans (paclitaxel metabolism [1])	inhibition of paclitaxel metabolism by CYP2C8 [2]	effect on paclitaxel metabolism (paclitaxel metabolism [3])
–	–	O=c1c(O)c(-c2ccc(O)cc2)oc2cc(O)cc(O)c12 [kaempherol]	selectively inhibit	–	–	–
–	–	CC(=O)N1CCN(c2ccc(OCC3COC(Cn4ccnc4)(c4ccc(Cl)cc4Cl)O3)cc2)CC1 (stereo not drawn) [ketoconazole]	–	unable to inhibit paclitaxel metabolism	concentration-dependent manner	–
–	–	O=C1C[C@@H](c2ccc(O)cc2)Oc2cc(O)cc(O)c21 [naringenin]	selectively inhibit	–	–	–
concentration-dependent manner	approximately 15 μM	O=c1c(O)c(-c2ccc(O)c(O)c2)oc2cc(O)cc(O)c12 [quercetin]	selectively inhibit	–	concentration-dependent manner	modest effect
